# From patent US11186817B2, “Chemically defined cell culture media additive” (IUCF-HYU (INDUSTRY-UNIVERSITY COOPERATION FOUNDATION …, priority 2014, dated 2021)
# Assays:
# Assay type in all cases: cell-based, Chinese hamster
# CHO DG44 cell line [1] = assay: Effective concentration range of THF: suspension growth of CHO DG44 in HY-CDM media
# Description: (§1) 1. Cell line and media: CHO DG44 cell line was used as a DHFR-deficient cell line. The cell line was passaged 80 times or more and suspension adapted in HY-CDM (in-house) media as chemically defined media. The suspension-adapted cell line was used to evaluate the influence of tetrahydrofolate (THF) and dihydrofolate (DHF) and the growth characteristics in commercial chemically defined media. The HY-CDM media were composed of chemically defined components only. Each HY-CDM medium further included a growth factor. HY-CDM media used in Examples 1, 3, and 4 were free of an animal derived lipid mixture, and HY-CDM media used in Example 2 were supplemented with cod liver oil.
# (§2) 2. Cell suspension culture: The cell line was inoculated at a density of 4×10^5 cells/ml and cultured in an Erlenmeyer flask with a 30 ml/125 ml working volume on an orbital shaker at 120 rpm under humidified conditions at 37° C. and 5% CO2. Before inoculation, the cells were centrifuged at 1,000 rpm (×162 g) for 5 min, the supernatant was discarded, and the remaining cells were dispersed into single cells in the heated medium. The cells were passaged three times to minimize the influence of the remaining medium under the experimental conditions. The subcultured cells were evaluated.
# (§3) 3. Density of live cells: The density of live cells was analyzed using a hemocytometer (Neubauer improved bright-line, Marienfeld, Germany), an inverted microscope (CK30, Olympus, Japan), and trypan blue dye exclusion.
# In this example, the effective concentration range of THF inducing the suspension growth of the CHO DG44 cell line in the HY-CDM media was evaluated with varying amounts of THF.
# To this end, the CHO DG44 cell line was passaged three time at a THF concentration of 0-480 mg/L, and their maximum cell densities and doubling times were measured.
# CHO DG44 cell line [2] = assay: Subculture characteristics of CHO DG44 in HY-CDM medium supplemented with THF; conditions: 1.6 mg/L THF, HY-CDM with cod liver oil
# Description: as §1, §2, §3
# A CHO DG44 cell line frozen-stored in an HY-CDM medium supplemented with 1.6 mg/L THF was thawed and subcultured every 2 days. On day 2 after the third passage, a cell density of 21.9±2.2×10^5 cells/ml and a doubling time of 20.3±1.3 h were observed, which were about 28% higher and about 20% more rapid than those of the control (17.1±3.4×10^5 cells/ml and 25.3±3.7 h), respectively (Table 2). The HY-CDM medium included a commercial lipid mixture containing cod liver oil as an animal derived component.
# CHO DG44 cell line [3] = assay: Growth of CHO DG44 cell line in commercial chemically defined media with and without THF; conditions: six commercial chemically defined media
# Description: as §1
# 2. Cell suspension culture: The cell line was inoculated at a density of 4×10^5 cells/ml and cultured in an Erlenmeyer flask with a 30 ml/125 ml working volume on an orbital shaker at 120 rpm under humidified conditions at 37° C. and 5% CO2. […] The subcultured cells were evaluated.
# as §3
# In this example, the versatility of the effect of THF addition to induce cell growth was evaluated. […]
# [4] = after the third passage, subcultured every 2 days
substance,measurement,setting,value
tetrahydrofolate [THF],"Doubling time, Passage 2","CHO DG44 cell line [1]; THF 0.4000 mg/L, HY-CDM",24.5 h
same,"Doubling time, Passage 3","CHO DG44 cell line [1]; THF 0.4000 mg/L, HY-CDM",19.2 h
same,"Maximum cell density, Average","CHO DG44 cell line [1]; THF 0.4000 mg/L, HY-CDM",29.7 ×10^5 cells/ml
same,"Maximum cell density, Passage 1","CHO DG44 cell line [1]; THF 0.4000 mg/L, HY-CDM",30.2 ×10^5 cells/ml
same,"Maximum cell density, Passage 2","CHO DG44 cell line [1]; THF 0.4000 mg/L, HY-CDM",28.1 ×10^5 cells/ml
same,"Maximum cell density, Passage 3","CHO DG44 cell line [1]; THF 0.4000 mg/L, HY-CDM",30.9 ×10^5 cells/ml
same,Cell density increase,"CHO DG44 cell line [1]; THF 0.8 mg/L, HY-CDM",~73%
same,"Doubling time, Average","CHO DG44 cell line [1]; THF 0.8000 mg/L, HY-CDM",20.7 h
same,"Doubling time, Passage 1","CHO DG44 cell line [1]; THF 0.8000 mg/L, HY-CDM",22.1 h
same,"Doubling time, Passage 2","CHO DG44 cell line [1]; THF 0.8000 mg/L, HY-CDM",22.2 h
same,"Doubling time, Passage 3","CHO DG44 cell line [1]; THF 0.8000 mg/L, HY-CDM",17.6 h
same,"Maximum cell density, Average","CHO DG44 cell line [1]; THF 0.8000 mg/L, HY-CDM",35.3 ×10^5 cells/ml
same,"Maximum cell density, Passage 1","CHO DG44 cell line [1]; THF 0.8000 mg/L, HY-CDM",34.2 ×10^5 cells/ml
same,"Maximum cell density, Passage 2","CHO DG44 cell line [1]; THF 0.8000 mg/L, HY-CDM",35.4 ×10^5 cells/ml
same,"Maximum cell density, Passage 3","CHO DG44 cell line [1]; THF 0.8000 mg/L, HY-CDM",36.4 ×10^5 cells/ml
same,"Doubling time, Average","CHO DG44 cell line [1]; THF 1.6000 mg/L, HY-CDM",21.3 h
same,"Doubling time, Passage 1","CHO DG44 cell line [1]; THF 1.6000 mg/L, HY-CDM",21.4 h
same,"Doubling time, Passage 2","CHO DG44 cell line [1]; THF 1.6000 mg/L, HY-CDM",22.0 h
same,"Doubling time, Passage 3","CHO DG44 cell line [1]; THF 1.6000 mg/L, HY-CDM",20.5 h
same,"Maximum cell density, Average","CHO DG44 cell line [1]; THF 1.6000 mg/L, HY-CDM",46.9 ×10^5 cells/ml
same,"Maximum cell density, Passage 1","CHO DG44 cell line [1]; THF 1.6000 mg/L, HY-CDM",46.0 ×10^5 cells/ml
same,"Maximum cell density, Passage 2","CHO DG44 cell line [1]; THF 1.6000 mg/L, HY-CDM",47.0 ×10^5 cells/ml
same,"Maximum cell density, Passage 3","CHO DG44 cell line [1]; THF 1.6000 mg/L, HY-CDM",47.8 ×10^5 cells/ml
same,"Doubling time, Average","CHO DG44 cell line [1]; THF 16.0000 mg/L, HY-CDM",21.2 h
same,"Doubling time, Passage 1","CHO DG44 cell line [1]; THF 16.0000 mg/L, HY-CDM",22.5 h
same,"Doubling time, Passage 2","CHO DG44 cell line [1]; THF 16.0000 mg/L, HY-CDM",21.2 h
same,"Doubling time, Passage 3","CHO DG44 cell line [1]; THF 16.0000 mg/L, HY-CDM",19.8 h
same,"Maximum cell density, Average","CHO DG44 cell line [1]; THF 16.0000 mg/L, HY-CDM",50.1 ×10^5 cells/ml
same,"Maximum cell density, Passage 1","CHO DG44 cell line [1]; THF 16.0000 mg/L, HY-CDM",52.0 ×10^5 cells/ml
same,"Maximum cell density, Passage 2","CHO DG44 cell line [1]; THF 16.0000 mg/L, HY-CDM",48.8 ×10^5 cells/ml
same,"Maximum cell density, Passage 3","CHO DG44 cell line [1]; THF 16.0000 mg/L, HY-CDM",49.6 ×10^5 cells/ml
same,Doubling time,"CHO DG44 cell line [1]; THF 0.025-16 mg/L, HY-CDM",21.3 ± 0.7 h
same,More rapid cell growth compared to control,"CHO DG44 cell line [1]; THF 0.025-16 mg/L, HY-CDM",≥ 14%
same,Effect on cell growth,"CHO DG44 cell line [1]; THF 0.1-160 mg/L, chemically defined media",effective in improving the cell growth
same,Cell growth increase,"CHO DG44 cell line [1]; THF 0.1-0.2 ma/L, HY-CDM",≥ 35%
same,Cell density increase,"CHO DG44 cell line [1]; THF 160 mg/L, HY-CDM",~90%
same,"Doubling time, Average","CHO DG44 cell line [1]; THF 160.0000 mg/L, HY-CDM",23.0 h
same,"Doubling time, Passage 1","CHO DG44 cell line [1]; THF 160.0000 mg/L, HY-CDM",25.8 h
same,"Doubling time, Passage 2","CHO DG44 cell line [1]; THF 160.0000 mg/L, HY-CDM",21.6 h
same,"Doubling time, Passage 3","CHO DG44 cell line [1]; THF 160.0000 mg/L, HY-CDM",21.6 h
same,"Maximum cell density, Average","CHO DG44 cell line [1]; THF 160.0000 mg/L, HY-CDM",35.7 ×10^5 cells/ml
same,"Maximum cell density, Passage 1","CHO DG44 cell line [1]; THF 160.0000 mg/L, HY-CDM",33.0 ×10^5 cells/ml
same,"Maximum cell density, Passage 2","CHO DG44 cell line [1]; THF 160.0000 mg/L, HY-CDM",36.4 ×10^5 cells/ml
same,"Maximum cell density, Passage 3","CHO DG44 cell line [1]; THF 160.0000 mg/L, HY-CDM",37.6 ×10^5 cells/ml
same,Effect on cell growth,"CHO DG44 cell line [1]; THF 480 mg/L, HY-CDM",inhibited the cell growth
same,"Maximum cell density, Average","CHO DG44 cell line [1]; THF 480.0000 mg/L, HY-CDM",06.3 ×10^5 cells/ml
same,"Maximum cell density, Passage 1","CHO DG44 cell line [1]; THF 480.0000 mg/L, HY-CDM",09.4 ×10^5 cells/ml
same,"Maximum cell density, Passage 2","CHO DG44 cell line [1]; THF 480.0000 mg/L, HY-CDM",04.6 ×10^5 cells/ml
same,"Maximum cell density, Passage 3","CHO DG44 cell line [1]; THF 480.0000 mg/L, HY-CDM",04.8 ×10^5 cells/ml
same,Cell density increase (maximum),"CHO DG44 cell line [1]; THF 1.6-16 mg/L, HY-CDM",≥ 155%
same,Cell density higher than control,CHO DG44 cell line [2]; after the third passage,about 28%
same,Doubling time more rapid than control,CHO DG44 cell line [2]; after the third passage,about 20%
same,Cell density on day 2,CHO DG44 cell line [2]; [4],21.9±2.2 ×10^5 cells/ml
same,Doubling time,CHO DG44 cell line [2]; [4],20.3 ± 1.3 h
same,Density of live cells on day 2 after culture,CHO DG44 cell line [2]; number of subcultures 3,19.2 ×10^5 cells/ml
same,Doubling time,CHO DG44 cell line [2]; number of subcultures 3,21.6 h
same,Density of live cells on day 2 after culture,CHO DG44 cell line [2]; number of subcultures 4,22.3 ×10^5 cells/ml
same,Doubling time,CHO DG44 cell line [2]; number of subcultures 4,21.1 h
same,Density of live cells on day 2 after culture,CHO DG44 cell line [2]; number of subcultures 5,19.1 ×10^5 cells/ml
same,Doubling time,CHO DG44 cell line [2]; number of subcultures 5,18.8 h
same,Density of live cells on day 2 after culture,CHO DG44 cell line [2]; number of subcultures 6,23.3 ×10^5 cells/ml
same,Doubling time,CHO DG44 cell line [2]; number of subcultures 6,20.2 h
same,Density of live cells on day 2 after culture,CHO DG44 cell line [2]; number of subcultures 7,23.5 ×10^5 cells/ml
same,Doubling time,CHO DG44 cell line [2]; number of subcultures 7,21.3 h
same,Density of live cells on day 2 after culture,CHO DG44 cell line [2]; number of subcultures 8,24.1 ×10^5 cells/ml
same,Doubling time,CHO DG44 cell line [2]; number of subcultures 8,18.6 h
same,Effect on cell density and growth rate,CHO DG44 cell line [3],increased the cell density and growth rate
